Results published in patent US20240307345A1, “R-MDMA and S-MDMA TO ASSIST PSYCHOTHERAPY” (Universitatsspital Basel, priority 2022, published 2024).
Entries after “also recorded” stand apart in the source; their conditions may differ.

What was measured:
rhesus monkeys = details: cited from earlier work
mice [1] = details: compared with R-MDMA; cited from earlier work
healthy subjects [2] = assay: Connectedness subscale of the PES questionnaire; format: in vivo, human; details: 125 mg
animals = details: various animal studies; cited from earlier work
healthy subjects [3] = assay: Effects on mood on the Adjective Mood Rating Scale (AMRS); format: in vivo, human; details: 125 mg
Method: (§1) Study design: The present study compares the acute subjective, physiological and endocrine effects of S-MDMA (125 mg), R-MDMA (125 and 250 mg), MDMA (125 mg) using a placebo-controlled double-blind 5-period cross-over design in 24 healthy subjects. Conditions are 1.) R-MDMA 125 mg, 2). R-MDMA 250 mg, 3) S-MDMA 125 mg, 4) MDMA 125 mg, 5) placebo. Treatment order is counterbalanced. Washout periods between substance administrations are at least 10 days. Study days include a 10-hour study session with a subsequent single measurement (short visit) the next morning (24 hours after drug administration).
(§2) Psychometric assessments: Visual Analog Scale (VAS): VASs is repeatedly used to assess subjective alterations in consciousness over time. Single scales are presented as 100 mm horizontal lines marked with “not at all” on the left and “extremely” on the right. The following VAS items are used: “any drug effect”, “good drug effect”, “bad drug effect”, “stimulated”, “liking”, “happy”, “content”, “talkative”, “open”, “trust”, “feeling close to others”, “anxiety”, “alteration of vision”, “alterations of hearing”, “sounds seem to influence what I see”, “alteration of sense of time”, “the boundaries between myself and my surroundings seem to blur”, “want to be with other people”, and “want to be alone”. Scales are administered before and repeatedly after substance administration and take approximately 2 minutes to fill out. The maximal ratings (Emax, 0-100) and areas under the effect-time curve (AUEC) are defined for each VAS and Emax and AUEC values compared between treatments using analysis of variance. 5-Dimensions of Altered States of Consciousness (5D-ASC): The 5 Dimensions of Altered States of Consciousness (5D-ASC) Scale is a questionnaire containing visual analog scales for 94 items (Studerus et al., 2010). The instrument contains five scales assessing mood, anxiety, derealization, depersonalization, changes in perception, auditory alterations, and reduced vigilance. The scale is well-validated (Studerus et al., 2010) and used internationally to evaluate effects of many other psychoactive substances. The overall psychedelic experience is reflected by the total […] score. Each item of the scale is scored on a 0-100 mm VAS. The attribution of the individual items to the subscales of the 5D-ASC is analyzed according to (Studerus et al., 2010). The 5D-ASC scale is administered once at the end of the session and subjects are instructed to retrospectively rate peak alterations that have been experienced during the study session. Adiective Mood Rating Scale (AMRS): The Adjective Mood Rating Scale (AMRS or EWL60S) is a 60-item Likert scale that allows repeated assessment of mood in 6 dimensions: Activation, inactivation, well-being, anxiety/depressed mood, extra- and introversion, and emotional excitability. The German EWL60S version is used. The AMRS consists of subscales measuring “activation,” “positive mood,” “extraversion,” “introversion,” “inactivation,” and “emotional excitability. The scale has previously been used to evaluate effects of many other psychoactive substances. Emax and AUEC scores will be defined for each subscale and compared between treatments using analysis of variance. The AMRS is administered repeatedly throughout the study session and once 3 days after each session. States of Consciousness Questionnaire (SCQ): In the SCQ, 100-items are rated on a six-point scale. Forty-three items embedded into this questionnaire comprise the Mystical Experience Questionnaire (MEQ) (MacLean et al., 2011) which is sensitive to the effects of psychedelic substances such as LSD. […]

healthy subjects [4] = assay: Autonomic effects (blood pressure, heart rate, body temperature); format: in vivo, human; details: 125 mg
Method: as §1
Autonomic measures: Blood pressure, heart rate, and body temperature are recorded at baseline and repeatedly throughout the session. Blood pressure (systolic and diastolic) and heart rate are measured with an automatic oscillometric device. Body temperature is measured with an ear thermometer. Emax is determined for each of the measures and for each study session. These Emax values are then compared between drug conditions using analysis of variance.

[5] = 75 mg; earlier study; cited from earlier work
healthy subjects [6] = assay: Alteration of mind and mystical-type effects on 5D-ASC and MEQ questionnaires; format: in vivo, human; details: 125 mg
Method: as §1, §2

healthy subjects [7] = assay: Clinical cross-over study, overall comparison of the substances; format: in vivo, human; details: conclusion over the doses tested
Method: as §1

healthy subjects [8] = assay: Acute subjective effects on the Visual Analog Scale (VAS); format: in vivo, human; details: 125 mg; compared with both R-MDMA doses and placebo
Method: as §1
Study procedures: The study takes place at the University Hospital Basel. Each of the test sessions last from 8:00 until 18:00 with a short visit the next morning (24 hours after application). An indwelling intravenous catheter is inserted into a subcutaneous vein of the forearm and baseline psychometric measures are obtained. Administration of the substance is at 9:00. Outcome measures (see below) are repeatedly assessed during the study session. Subjects are under continuous medical supervision until any alterations of consciousness have completely subsided and they leave the research facility.
Psychometric assessments: Visual Analog Scale (VAS): VASs is repeatedly used to assess subjective alterations in consciousness over time. Single scales are presented as 100 mm horizontal lines marked with “not at all” on the left and “extremely” on the right. The following VAS items are used: “any drug effect”, “good drug effect”, “bad drug effect”, “stimulated”, “liking”, “happy”, “content”, “talkative”, “open”, “trust”, “feeling close to others”, “anxiety”, “alteration of vision”, “alterations of hearing”, “sounds seem to influence what I see”, “alteration of sense of time”, “the boundaries between myself and my surroundings seem to blur”, “want to be with other people”, and “want to be alone”. Scales are administered before and repeatedly after substance administration and take approximately 2 minutes to fill out. The maximal ratings (Emax, 0-100) and areas under the effect-time curve (AUEC) are defined for each VAS and Emax and AUEC values compared between treatments using analysis of variance. 5-Dimensions of Altered States of Consciousness (5D-ASC): The 5 Dimensions of Altered States of Consciousness (5D-ASC) Scale is a questionnaire containing visual analog scales for 94 items (Studerus et al., 2010). The instrument contains five scales assessing mood, anxiety, derealization, depersonalization, changes in perception, auditory alterations, and reduced vigilance. The scale is well-validated (Studerus et al., 2010) and used internationally to evaluate effects of many other psychoactive substances. The overall psychedelic experience is reflected by the total […] score. Each item of the scale is scored on a 0-100 mm VAS. The attribution of the individual items to the subscales of the 5D-ASC is analyzed according to (Studerus et al., 2010). The 5D-ASC scale is administered once at the end of the session and subjects are instructed to retrospectively rate peak alterations that have been experienced during the study session. Adiective Mood Rating Scale (AMRS): The Adjective Mood Rating Scale (AMRS or EWL60S) is a 60-item Likert scale that allows repeated assessment of mood in 6 dimensions: Activation, inactivation, well-being, anxiety/depressed mood, extra- and introversion, and emotional excitability. The German EWL60S version is used. The AMRS consists of subscales measuring “activation,” “positive mood,” “extraversion,” “introversion,” “inactivation,” and “emotional excitability. The scale has previously been used to evaluate effects of many other psychoactive substances. Emax and AUEC scores will be defined for each subscale and compared between treatments using analysis of variance. The AMRS is administered repeatedly throughout the study session and once 3 days after each session. […]

mice [9] = details: cited from earlier work
[10] = human; after administration of racemic MDMA; compared to R-MDA; cited from earlier work

CNC(C)Cc1ccc2c(c1)OCO2 (racemic) [(±)-MDMA, ±3,4-methylenedioxymethamphetamine, reference compound]
reinforcing properties (rhesus monkeys): moderate reinforcing properties
onset of interoceptive effects (mice [1]): faster
ratings of connectedness, difference between conditions (healthy subjects [2]): no difference
social interaction (animals): Increased social interaction
effects on the AMRS (healthy subjects [3]): comparable effects
body temperature (healthy subjects [4]): increased similarly; also recorded: increased body temperature only moderately
heart rate (healthy subjects [4]; versus placebo): increase heart rate comparably and more than with placebo
body temperature [5]: did not significantly increase body temperature
acute mystical-type experiences on the 5D-ASC scale (healthy subjects [6]; 24 subjects): comparable effects with no significant differences
psychedelic effects on the 5D-ASC and the MEQ questionnaires (healthy subjects [6]; compared with placebo (and 125 mg R-MDMA)): comparable and overall greater psychedelic effects
acute subjective effects and adverse effects (healthy subjects [7]): overall comparable
VAS “talkative,” “open,” “trust,” and “I feel close to others” (healthy subjects [8]): higher values
lethal doses (mice [9]): similar

C[C@H](N)Cc1ccc2c(c1)OCO2 [S-MDA]
plasma levels of the active metabolite [10]: higher
time of peak plasma level of the active metabolite [10]: peaked earlier
